Patent US9708336B2, “Metallo-beta-lactamase inhibitors” (priority 2014, dated 2017)
Where two headings read alike, the source gives them in different places.

Legend:
[1] = biological target: IMP-1 (Serratia marcescens, UniProt P52699); test: biochemical; assay type: biochemical; conditions: read-out: IMP-1 IC50
[2] = biological target: VIM-1 (Pseudomonas aeruginosa (strain ATCC 15692 / DSM 22644 / CIP 104116 / JCM 14847 / LMG 12228 / 1C / PRS 101 / PAO1), UniProt A0A0F7KYQ8); test: Enzyme activity: determination of IC50, fluorescence assay with CCF2-FA substrate (VIM-1); assay type: biochemical
[3] = biological target: NDM-1 (Klebsiella pneumoniae, UniProt C7C422); test: biochemical; assay type: biochemical; conditions: read-out: NDM-1 IC50
Sequence of NDM-1 (C7C422 whole entry, looked up, species assumed): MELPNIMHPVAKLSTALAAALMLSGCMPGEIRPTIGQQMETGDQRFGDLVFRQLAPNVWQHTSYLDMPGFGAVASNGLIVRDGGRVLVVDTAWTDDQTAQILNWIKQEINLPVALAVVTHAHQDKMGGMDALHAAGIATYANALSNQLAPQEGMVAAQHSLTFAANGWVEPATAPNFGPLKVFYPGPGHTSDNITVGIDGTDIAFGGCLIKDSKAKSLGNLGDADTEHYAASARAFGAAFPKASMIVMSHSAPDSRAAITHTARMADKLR

[4] = tested on: Escherichia coli expressing NDM-1 (CLB30016); test: Antibiotic potentiation activity: synergistic concentration (MITC95) with imipenem, OD600 growth; assay type: cell-based; conditions: for Escherichia coli expressing NDM-1 (CLB 30016) MITC95: concentration giving 95% inhibition of bacterial growth
Method in brief: (§1)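 In 1.1× CAMHB, clinical isolates from overnight plates were challenged with test compound alongside imipenem at an assay concentration of 4 μg/ml, sometimes 1 μg/ml. Plates sat covered at 35 °C for 22–24 h prior to spectrophotometric reading.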

[5] = tested on: Serratia marcescens expressing IMP-1 (CL5741); test: as above; assay type: cell-based; conditions: for Serratia marcescens expressing IMP-1 (CL5741) MITC95: concentration giving 95% inhibition of bacterial growth
Method in brief: as §1

[6] = tested on: Klebsiella pneumoniae expressing VIM-1 (IHMA599644); test: as above; assay type: cell-based; conditions: for Klebsiella pneumoniae expressing VIM-1 (IHMA 599644) MITC95: concentration giving 95% inhibition of bacterial growth
Method in brief: as §1

[7] = IMP-1 enzyme, CCF2-FA fluorescence assay
[8] = VIM-1 enzyme, CCF2-FA fluorescence assay, read-out: VIM-1 IC50
[9] = NDM-1 enzyme, CCF2-FA fluorescence assay
[10] = Escherichia coli expressing NDM-1 (CLB30016), 95% growth inhibition
[11] = Serratia marcescens expressing IMP-1 (CL5741), 95% growth inhibition
[12] = Klebsiella pneumoniae expressing VIM-1 (IHMA599644), 95% growth inhibition
[13] = fluorescence assay with CCF2-FA substrate
[14] = fluorescence assay with CCF2-FA substrate, read-out: VIM-1 IC50
[15] = CLB30016 (NDM-1), 95% inhibition of bacterial growth
[16] = CL5741 (IMP-1), 95% inhibition of bacterial growth
[17] = IHMA599644 (VIM-1), 95% inhibition of bacterial growth
[18] = IMP-1 enzyme, CCF2-FA substrate
[19] = NDM-1 enzyme, CCF2-FA substrate
[20] = (CLB30016, NDM-1), 95% growth inhibition
[21] = Serratia marcescens CL5741 (IMP-1), 95% growth inhibition
[22] = Klebsiella pneumoniae IHMA599644 (VIM-1), 95% growth inhibition
[23] = VIM-1 IC50, VIM-1 enzyme, CCF2-FA substrate
[24] = VIM-1 IC50, fluorescence assay with CCF2-FA substrate

Sequence of IMP-1 (P52699 whole entry, looked up): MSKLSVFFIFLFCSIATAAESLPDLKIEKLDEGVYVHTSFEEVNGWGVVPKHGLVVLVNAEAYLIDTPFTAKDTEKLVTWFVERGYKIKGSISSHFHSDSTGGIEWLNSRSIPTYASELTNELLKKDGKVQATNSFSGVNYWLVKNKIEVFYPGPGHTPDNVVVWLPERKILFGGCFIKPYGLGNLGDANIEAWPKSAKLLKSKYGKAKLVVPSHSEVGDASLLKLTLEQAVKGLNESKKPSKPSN

SMILES: NS(=O)(=O)c1cccc(-c2ccc3nccnc3c2)c1-c1nnn[nH]1 [Example 405, 3-quinoxalin-6-yl-2-(1H-tetrazol-5-yl)benzenesulfonamide]
- IC50 [1, 7]: 67.6 nM
- IC50 [2, 8]: 16.9 nM
- IC50 [3, 9]: 4.23 nM
- Escherichia coli MITC95 [4, 10]: 1.563 µM
- Serratia marcescens MITC95 [5, 11]: 1.563 µM
- Klebsiella pneumoniae MITC95 [6, 12]: 62.5 µM

SMILES: CN(C)c1ccc(C(F)(F)F)c(S(N)(=O)=O)c1-c1nnn[nH]1 [Example 784, 3-(dimethylamino)-2-(1H-tetrazol-5-yl)-6-(trifluoromethyl) benzenesulfonamide]
- IC50 [1, 13]: 48.3 nM
- IC50 [2, 14]: 15.5 nM
- IC50 [3, 13]: 41.7 nM
- Escherichia coli MITC95 [4, 15]: 3.125 µM
- Serratia marcescens MITC95 [5, 16]: 3.125 µM
- Klebsiella pneumoniae MITC95 [6, 17]: 31.25 µM

SMILES: CN1CCN(c2ncc(-c3cccc(S(N)(=O)=O)c3-c3nnn[nH]3)cn2)CC1 [Example 128, 3-(2-(4-methylpiperazin-1-yl)pyrimidin-5-yl)-2-(1H-tetrazol-5-yl)benzenesulfonamide]
- IC50 [1, 13]: 453 nM
- IC50 [2, 14]: 1140 nM
- IC50 [3, 13]: 7.95 nM
- Escherichia coli expressing NDM-1 (CLB 30016) MITC95 [4]: 1.563 µM
- Serratia marcescens expressing IMP-1 (CL5741) MITC95 [5]: 9.375 µM
- Klebsiella pneumoniae expressing VIM-1 (IHMA 599644) MITC95 [6]: >200 µM

SMILES: Cc1cccc(S(N)(=O)=O)c1-c1nnn[nH]1 [Example 150, 3-methyl-2-(1H-tetrazol-5-yl)benzenesulfonamide]
- IC50 [1, 13]: 1940 nM
- IC50 [2, 14]: 5650 nM
- IC50 [3, 13]: 148 nM
- Escherichia coli expressing NDM-1 (CLB 30016) MITC95 [4]: 0.7813 µM
- Serratia marcescens expressing IMP-1 (CL5741) MITC95 [5]: 6.25 µM
- Klebsiella pneumoniae expressing VIM-1 (IHMA 599644) MITC95 [6]: 200 µM

SMILES: NC1(c2ccc(-c3ccc(C(F)(F)F)c(S(N)(=O)=O)c3-c3nnn[nH]3)cc2)CCCC1 [Example 729, 4′-(1-aminocyclopentyl)-2-(1H-tetrazol-5-yl)-4-(trifluoromethyl)biphenyl-3-sulfonamide]
- IC50 [1, 18]: 6.97 nM
- IC50 ([2]; VIM-1 enzyme, CCF2-FA substrate, read-out: VIM-1 IC50): 7.37 nM
- IC50 [3, 19]: 4.85 nM
- Escherichia coli MITC95 [4, 20]: 6.25 µM
- Serratia marcescens MITC95 [5, 21]: 6.25 µM
- Klebsiella pneumoniae MITC95 [6, 22]: 25 µM

SMILES: NS(=O)(=O)c1c(C(F)(F)F)ccc(-c2ccc(C3CCN(C4CCNC4)CC3)cc2)c1-c1nnn[nH]1 (stereo not drawn) [Example 789, 4′-(1-pyrrolidin-3-ylpiperidin-4-yl)-2-(1H-tetrazol-5-yl)-4-(trifluoromethyl)biphenyl-3-sulfonamide]
- IC50 [1, 13]: 0.472 nM
- IC50 [2, 14]: 16.5 nM
- IC50 [3, 13]: 2.4 nM
- Escherichia coli MITC95 [4, 15]: 3.125 µM
- Serratia marcescens MITC95 [5, 16]: 3.125 µM
- Klebsiella pneumoniae MITC95 [6, 17]: 100 µM

SMILES: NCC[C@H]1CC[C@H](c2ccc(C(F)(F)F)c(S(N)(=O)=O)c2-c2nnn[nH]2)CC1 [Example 499, 3-(trans 4-(2-aminoethyl)cyclohexyl)-2-(1H-tetrazol-5-yl)-6-(trifluoromethyl)benzenesulfonamide]
- IC50 [1, 18]: 7.04 nM
- IC50 [2, 23]: 0.328 nM
- IC50 [3, 19]: 1.93 nM
- Escherichia coli MITC95 [4, 20]: 0.7813 µM
- Serratia marcescens MITC95 [5, 21]: 0.1953 µM
- Klebsiella pneumoniae MITC95 [6, 22]: 1.172 µM

SMILES: NCC1(N)CCC(c2ccc(C(F)(F)F)c(S(N)(=O)=O)c2-c2nnn[nH]2)CC1 (stereo not drawn) [Example 497, 3-(4-Amino-4-(aminomethyl)cyclohexyl)-2-(1H-tetrazol-5-yl)-6-(trifluoromethyl)benzenesulfonamide]
- IC50 [1, 18]: 25.8 nM
- IC50 [2, 23]: 59.5 nM
- IC50 [3, 19]: 3.06 nM
- Escherichia coli MITC95 [4, 20]: 0.5859 µM
- Serratia marcescens MITC95 [5, 21]: 0.3906 µM
- Klebsiella pneumoniae MITC95 [6, 22]: 6.25 µM

SMILES: NS(=O)(=O)c1c(C(F)(F)F)ccc(N2C[C@@H](O)[C@H](O)C2)c1-c1nnn[nH]1 [Example 756, 3-[(3R,4R)-3,4-dihydroxypyrrolidin-1-yl]-2-(1H-tetrazol-5-yl)-6-(trifluoromethyl) benzenesulfonamide]
- IC50 [1, 13]: 89.1 nM
- IC50 [2, 24]: 339 nM
- IC50 [3, 13]: 78.1 nM
- Escherichia coli MITC95 [4, 15]: 12.5 µM
- Serratia marcescens MITC95 [5, 16]: 12.5 µM
- Klebsiella pneumoniae MITC95 [6, 17]: >200 µM

SMILES: Cc1ccc(-c2ccc(Br)c(S(N)(=O)=O)c2-c2nn[nH]n2)cc1 [Example 267, 4-bromo-4′-methyl-2-(2H-tetrazol-5-yl)-[1,1′-biphenyl]-3-sulfonamide]
- IC50 [1, 7]: 2 nM
- IC50 [2, 8]: 2.95 nM
- IC50 [3, 9]: 1.81 nM
- Escherichia coli MITC95 [4, 10]: 0.7383 µM
- Serratia marcescens MITC95 [5, 11]: 0.2552 µM
- Klebsiella pneumoniae MITC95 [6, 12]: 6.25 µM

SMILES: NS(=O)(=O)c1cccc(-c2cc(F)cc(F)c2)c1-c1nnn[nH]1 [Example 129, 3′,5′-difluoro-2-(1H-tetrazol-5-yl)-[1,1′-biphenyl]-3-sulfonamide]
- IC50 [1, 13]: 176 nM
- IC50 [2, 24]: 37.9 nM
- IC50 [3, 13]: 3.71 nM
- Escherichia coli expressing NDM-1 (CLB 30016) MITC95 [4]: 0.7813 µM
- Serratia marcescens expressing IMP-1 (CL5741) MITC95 [5]: 9.375 µM
- Klebsiella pneumoniae expressing VIM-1 (IHMA 599644) MITC95 [6]: 12.5 µM

SMILES: CC(C1CCN(c2ccnc(S(N)(=O)=O)c2-c2nnn[nH]2)CC1)N1CCOCC1 (stereo not drawn) [Example 223, 4-[4-(1-morpholin-4-ylethyl)piperidin-1-yl]-3-(1H-tetrazol-5-yl)pyridine-2-sulfonamide]
- IC50 [1, 13]: 1300 nM
- IC50 [2, 14]: 583 nM
- IC50 [3, 13]: 157 nM
- Escherichia coli expressing NDM-1 (CLB 30016) MITC95 [4]: 4.688 µM
- Serratia marcescens expressing IMP-1 (CL5741) MITC95 [5]: 25 µM
- Klebsiella pneumoniae expressing VIM-1 (IHMA 599644) MITC95 [6]: 200 µM

SMILES: Nc1ncc(-c2ccc(C(F)(F)F)c(S(N)(=O)=O)c2-c2nnn[nH]2)cc1F [Example 476, 3-(6-amino-5-fluoro-3-pyridyl)-2-(1H-tetrazol-5-yl)-6-(trifluoromethyl)benzenesulfonamide]
- IC50 [1, 7]: 3.98 nM
- IC50 [2, 8]: 0.263 nM
- IC50 [3, 9]: 1.79 nM
- Escherichia coli MITC95 [4, 10]: 1.563 µM
- Serratia marcescens MITC95 [5, 11]: 0.5859 µM
- Klebsiella pneumoniae MITC95 [6, 12]: 1.563 µM

SMILES: N=CNCc1ccc(-c2ccc(Br)c(S(N)(=O)=O)c2-c2nn[nH]n2)cc1 [Example 425, N-((4′-bromo-3′-sulfamoyl-2′-(2H-tetrazol-5-yl)-[1,1′-biphenyl]-4-yl)methyl)formimidamide]
- IC50 [1, 7]: 15.9 nM
- IC50 ([2]; VIM-1 IC50, VIM-1 enzyme, CCF2-FA fluorescence assay): 4.07 nM
- IC50 [3, 9]: 13.5 nM
- Escherichia coli MITC95 [4, 10]: 0.3906 µM
- Serratia marcescens MITC95 [5, 11]: 0.5859 µM
- Klebsiella pneumoniae MITC95 [6, 12]: 1.563 µM

SMILES: NC1CCC(N[C@H]2CC[C@H](c3ccc(C(F)(F)F)c(S(N)(=O)=O)c3-c3nnn[nH]3)CC2)CC1 (stereo partly drawn) [Example 701, 3-{4-[(4-aminocyclohexyl)amino]cyclohexyl}-2-(1H-tetrazol-5-yl)-6-(trifluoromethyl)benzene sulfonamide]
- IC50 [1, 18]: 62.9 nM
- IC50 [2, 23]: 12.7 nM
- IC50 [3, 19]: 15.4 nM
- Escherichia coli MITC95 [4, 20]: 0.7813 µM
- Serratia marcescens MITC95 [5, 21]: 3.125 µM
- Klebsiella pneumoniae MITC95 [6, 22]: 6.25 µM

SMILES: NC1CCC(c2cccc(S(N)(=O)=O)c2-c2nn[nH]n2)CC1 (stereo not drawn) [Example 168, 3-(4-Aminocyclohexyl)-2-(2H-tetrazol-5-yl)benzenesulfonamide]
- IC50 [1, 13]: 865 nM
- IC50 [2, 14]: 50.3 nM
- IC50 [3, 13]: 39.4 nM
- Escherichia coli expressing NDM-1 (CLB 30016) MITC95 [4]: 0.25 µM
- Serratia marcescens expressing IMP-1 (CL5741) MITC95 [5]: 6.25 µM
- Klebsiella pneumoniae expressing VIM-1 (IHMA 599644) MITC95 [6]: 2.172 µM
